Patent US20170368018A1, “USE OF ELLAGIC ACID DIHYDRATE IN PHARMACEUTICAL FORMULATIONS TO REGULATE BLOOD GLUCOSE LEVELS” (HALO LIFE SCIENCE, LLC, priority 2014, published 2017)
“Also recorded” adds a separate entry of the source.

Tests used:
[1] = Estimated saturation in 100% DMSO; type: physicochemical
Procedure: General Procedure. For Examples 2 through 7, all test compounds of interest were initially dissolved in 100% DMSO. Estimated saturation occurred at approximately 4 mM for ellagic acid dihydrate. The saturated solution was diluted 1:10 in 1× PBS; creating a 100× stock solution of 400 μM ellagic acid dihydrate. Working concentrations (1×), 4 μM, and more dilute concentrations of ellagic acid dihydrate were created by 1:10 dilutions into 0.1% DMSO. The resulting six dilutions ranged from 4 μM to 0.04 nM. Dose curves were analyzed using either Harmony software on the Operetta (Perkin Elmer) or Excel (Microsoft) for flow cytometry, which was performed on a BD Accuri (BD Biosciences).

[2] = molecular target: glucose oxidase reaction (Aspergillus niger, UniProt P13006); test: Direct interaction with glucose, glucose oxidase based glucometer on serum; type: biochemical; conditions: incubated with serum at room temperature for five minutes or overnight at 37° C.
Procedure: Ellagic acid dihydrate was analyzed for direct interaction with glucose. A glucose oxidase based glucometer was used to measure serum glucose. Ellagic acid dihydrate was incubated with serum at room temperature for five minutes or overnight at 37° C. Upon testing the mixture, no inhibition of the glucose oxidase reaction was observed. Ellagic acid dihydrate is not believed to directly interact with glucose.

[3] = test system: mouse embryonic fibroblasts (MEFs); test: Cytotoxicity: cell proliferation by automated cell counting (flow cytometry); type: cell-based; conditions: 48 hr exposure, 4 μM-0.04 nM, changes not statistically significant (P>0.05)
Procedure: (§1) The cytotoxicity of ellagic acid dihydrate in in vitro cell culture was evaluated. Cellular assays were performed using mouse embryonic fibroblasts (MEFs). Cells were unexposed (No Treatment) or exposed to varying concentrations of ellagic acid dihydrate (4 μM-0.04 nM) or vehicle (0.1% DMSO) for 48 hrs. All assays were run in triplicate.
Cell proliferation rates were determined using automated cell counting of cells after 48 hr exposure to ellagic acid dihydrate in complete medium (DMEM w/10% FBS). Cell were then washed thrice with 1× PBS and incubated with Accutase (Invitrogen) for 10 min at 37° C., neutralized with 10% FBS in 1× PBS, and analyzed by flow cytometry. Cell concentrations were determined by cell counting (500-1000) on a flow cytometer (Accuri C6, BD Biosciences). The concentration of cells reflects the impact of ellagic acid dihydrate on the cell population numbers (cell death and cell proliferation).

[4] = test system: mouse embryonic fibroblasts (MEFs); test: Cytotoxicity: cell membrane integrity by propidium iodide (PI) labeling; type: cell-based; conditions: 48 hr exposure
Procedure: as §1
Loss of cellular membrane integrity is an indication of cell death. Cell membrane integrity/cell toxicity was determined by adding propidium iodide (PI) to suspended cells prior to flow cytometry. PI is a red-fluorescent DNA stain that is excluded by live-healthy cells but will enter dead cells in a population. The presence of PI in 500-1000 cells per treatment group was determined by flow cytometry (Accuri C6, BD Biosciences). Cell with disrupted membranes, associated with cell death, are expected to be positively labeled with PI.

[5] = test system: MEF cells; test: Glucose uptake, 2-NBDG labeling, flow cytometry, MEFs; type: cell-based, mouse
Procedure: Cellular assays were performed using mouse myoblast C2C12 cells and MEF cells. […] Increased glucose uptake was indicated as increasing signal of 2-NBDG ([…]) in cells. Glucose uptake assays were carried out in a final incubation volume of 50 μl consisting of, 2-NBDG), (100 μM) in 1× Phosphate Buffered Saline w/Ca+, Mg+ (PBS++). The same buffer was used for washing cells. Insulin was used as a positive control. All testing compounds were prepared in […] and diluted 1:100 for a final concentration of 0.1% DMSO (vehicle). Cells were culture to 70-90% confluence and then washed twice with PBS++. Cells were incubated for 30 minutes at 37° C. in PBS++. Nuclear stain, HCS CellMask stain (blue, Invitrogen), and/or testing compounds (ellagic acid dihydrate, insulin, or vehicle) were added. Cells were incubated for 30 min at 37° C. Cells were washed twice with PBS++and incubated with 2-NBDG for 10 minutes. Cells were washed thrice with PBS++and then imaged in PBS++. Alternatively, the final PBS wash was removed and cells were incubated with Accutase (Invitrogen) for 10 min at 37° C., neutralized with 10% FBS in 1× PBS, and analyzed by flow cytometry. An additional experiment was performed to measure glucose uptake in C2C12 cells exposed to metformin, insulin and ellagic acid dihydrate 2 (batch 2). FIG. 5C. Glucose uptake in ellagic acid dihydrate treated cell culture was measured and compared to glucose uptake under insulin or ellagic acid treatment. […] Flow cytometry results were run in triplicate with 1000 cells per batch.

Sequence of glucose oxidase reaction (P13006 17-605): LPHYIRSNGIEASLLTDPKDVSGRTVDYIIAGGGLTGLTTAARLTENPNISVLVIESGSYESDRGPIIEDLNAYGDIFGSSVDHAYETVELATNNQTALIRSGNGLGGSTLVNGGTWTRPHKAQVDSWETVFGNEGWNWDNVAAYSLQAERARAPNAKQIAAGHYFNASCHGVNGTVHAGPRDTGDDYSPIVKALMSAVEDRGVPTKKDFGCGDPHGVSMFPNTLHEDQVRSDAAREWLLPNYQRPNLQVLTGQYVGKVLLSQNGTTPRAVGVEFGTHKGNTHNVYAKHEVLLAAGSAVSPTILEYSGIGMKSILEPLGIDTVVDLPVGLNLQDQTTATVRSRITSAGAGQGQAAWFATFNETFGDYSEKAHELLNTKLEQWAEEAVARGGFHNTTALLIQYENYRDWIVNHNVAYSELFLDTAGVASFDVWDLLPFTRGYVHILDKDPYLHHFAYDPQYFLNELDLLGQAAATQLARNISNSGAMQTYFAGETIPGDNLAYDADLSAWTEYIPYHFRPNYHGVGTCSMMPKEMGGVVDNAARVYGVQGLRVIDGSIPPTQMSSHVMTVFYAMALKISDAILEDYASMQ

## O.O.O=c1oc2c(O)c(O)cc3c(=O)oc4c(O)c(O)cc1c4c23 [ellagic acid dihydrate]
[1]
  Estimated saturation: approximately 4 mM
[2]
  inhibition of the glucose oxidase reaction: no inhibition
[3]
  Cell proliferation: trend toward increasing cell proliferation
[4]; 400 nM-0.4 nM, not statistically significant (P>0.05)
  Cell membrane integrity relative to the vehicle or untreated cells: increased
[4]; 4000 nM
  Cell membrane integrity (% cells negative for PI): 95.40%
[5]; 400 nM exposure, fibroblasts, FIG. 4B
  increased glucose uptake relative to vehicle treated cells: 47%
[5]; MEFs, flow cytometry, 4 μM-0.04 nM
  dose effect for increasing glucose uptake: showed a dose effect
[5]; MEFs, flow cytometry, Example 5, FIG. 6
  increase in glucose uptake compared with ellagic acid or insulin treatment: significantly greater increase in glucose uptake
[5]; MEFs, flow cytometry, FIG. 4A
  glucose uptake (2-NBDG signal) relative to vehicle: significantly greater than vehicle treated
[5]; fibroblasts, at most concentrations tested, significant at 4 nM-4 μM, dihydrate
  glucose uptake relative to insulin: significantly more glucose uptake relative to insulin; also recorded: exceeded the uptake induced by insulin
[5]; in vitro conditions, summary statement
  glucose uptake per unit dose: increase in glucose uptake per unit dose
